The subject of data set [1] is paternal Ube3a-YFP. The data set can be described thus: Paternal Ube3a-YFP unsilencing, fluorescence immunostaining and high-content imaging in primary cortical neurons (Ube3a^m+/pYFP). The settings on record: for neurons expressing paternal Ube3a-YFP above threshold: 0.3 μM, n = 4 wells, YFP-positive cells / total Hoechst-positive cells. In kind it is cell-based, mouse. The protocol: We followed the protocols for fluorescent immunostaining and high-content imaging of cortical neurons as previously described. Briefly, 72 h after drug treatment, the cells were fixed with 4% paraformaldehyde at room temperature for 15 min. After rinsing with phosphate-buffered saline (PBS) three times, the cells were permeabilized with 1% Triton-X 100 in PBS, followed by blocking with 5% NGS and 0.1% Triton-X 100 in PBS at room temperature for 30 min. After blocking, the cells were incubated with primary antibody, rabbit anti-GFP (1:1000, Novus Biologicals), at 4 °C overnight. The cells were then briefly rinsed with PBS followed by incubation with secondary antibody, goat anti-rabbit Alexa Fluor 488 (1:200, Thermo Fisher/Invitrogen), at room temperature. One hour after secondary antibody incubation, the cells were rinsed with PBS and fluorescent images were acquired using a BD Pathway 855 bioimager. The acquired images were processed by CellProfiler to count the number of positive cells and measure fluorescent intensity (Additional file 2). To determine the percentage of neurons expressing paternal Ube3a-YFP, we counted the total number of cells (Hoechst) and YFP-positive cells, and the number of YFP-positive cells was divided by the total number of cells. Fluorescence intensity was measured in neurons expressing unsilenced paternal Ube3a-YFP and normalized to vehicle control.

Details of data set [2]: method as in PMID 27169793. The note with it: at the concentrations examined; cited from earlier work.
The next data set concerns paternal UBE3A. Nature of the data set: Western blot of paternal UBE3A in cultured neurons from AS model mice (Ube3a^m−/p+). The settings on record: 0.3 μM, 72 h, vs DMSO, n = 3/group. The data set is classed as cell-based, mouse. The protocol:
(§1) We followed the same procedures of Western blot analysis as previously described. In brief, 72 h after drug treatment, we collected the cultured neurons from 6-well plates and extracted total protein with protein extraction buffer. Bradford assay was performed to measure protein concentration, and 30 μg of total protein was loaded for Bis-polyacrylamide gel electrophoresis (Bio-Rad). Electrophoresed proteins were transferred to nitrocellulose membrane (0.45 μm, Bio-Rad). The membranes were blocked with 5% non-fat milk in TBS-T at room temperature for 30 min followed by overnight 4 °C incubation with primary antibodies (rabbit anti-GFP, 1:1000, Novus Biologicals; rabbit anti-Ube3a, 1:1000, Bethyl Lab; mouse anti-actin; 1:5000, Sigma). The next day, the membranes were rinsed with TBS-T three times and incubated with HPR-conjugated secondary antibodies for 1 h at room temperature (goat anti-rabbit, 1:1000, Vector Lab or goat anti-mouse, 1:1000, Vector Lab). Following secondary antibody incubation, the membranes were rinsed with TBS-T at room temperature for 1 h (4–5 times) and ECL substrates (Bio-Rad) were used to visualize immunostaining using an Amersham Imager 600 (AI600, GE Life Sciences).
In general terms: Immunoblotting shows a protein as a band on a membrane.

In another data set the test system is MDR1. The arrangement: method as in PMID 17974983. The settings on record: cited from earlier work.
On the set-up of data set [3]: method as in earlier work. The note with it: cited from earlier work.
In the next data set the test system is Top1. The settings on record: cited from earlier work.
In data set [4] the test system is paternal Ube3a-YFP. The data set can be described thus: Western blot of paternal UBE3A-YFP in cultured neurons from Ube3a^m+/pYFP mice. In kind it is cell-based, mouse. The note with it: 0.3 μM, 72 h, n = 3/group. The protocol:
as §1

A further data set concerns ABCG2. More on the design: method as in PMID 17974983. The note with it: cited from earlier work.
A further data set in a line: in vitro. The settings on record: mouse.
Data set [5] can be described thus: Cytotoxicity test (Cyto Tox-Glo) in cultured cortical neurons. The settings on record: mouse, primary cultured cortical neurons from E14.5 embryos.
The mark [6] stands for this setting: Table S1, nine analogues, unsilencing of paternal UBE3A-YFP, 72 h.
Where [7] appears, read: Table S1, nine analogues, unsilencing of paternal UBE3A-YFP, 72 h, 'ambiguous' = limited effective dose range, read-out: EC50.
The mark [8] stands for this setting: Mus musculus, Primary cortical neuron, unsilencing of paternal UBE3A-YFP, drug 72 h from DIV 7, n = 4/group, estimated from Fig. 4, read-out: EC50.
Where [9] appears, read: maximum response of unsilencing paternal Ube3a-YFP, fluorescence intensity normalized to vehicle control, 72 h, estimated from Fig. 4.

The source of these data is article PMC6098585, “Characterization and structure-activity relationships of indenoisoquinoline-derived topoisomerase I inhibitors in unsilencing the dormant Ube3a gene associated with Angelman syndrome” (Molecular Autism, 2018).

The structures appear in SMILES notation. Where two headings read alike, the source gives them in different places.

For `COc1cc2c3c(n(C[C@H](O)CO)c(=O)c2cc1OC)-c1cc2c(cc1C3=O)OCO2` [DB-IV-50], the Emax in the data set with paternal Ube3a-YFP [1] (setting [6]) was 1.39 (±0.07). The EC50 (in general, the concentration at which the effect is half-maximal) in the data set with paternal Ube3a-YFP [1] (setting [7]) is 121 nM.

On to `COc1cc2c3c(n(CCCN4CCOCC4)c(=O)c2cc1OC)-c1cc2c(cc1C3=O)OCO2` [Indotecan, indotecan], for which the “tolerability in a clinical population” value in [2] was “well tolerated”. Moreover, the “paternal UBE3A protein level (Western blot, normalized to actin)” value with paternal UBE3A is “high level of paternal UBE3A protein”. The “substrate for transporter MDR1” value in the data set on MDR1 is “not a substrate”. Besides, the CNS penetration entry in data set [3] is “favorable CNS penetration”. Moreover, in the data set with Top1, the “inhibition of Top1 enzymatic activity” value is on record as around 100%. Also, the “neurons expressing paternal Ube3a-YFP above threshold” value in the data set with paternal Ube3a-YFP [1] (72 h) came out at 37.1 ± 5.19%. In addition, the EC50 is around 26 nM with paternal Ube3a-YFP [1] (Mus musculus, Primary cortical neuron, read-out: EC50 to produce Ube3a unsilencing) and 25.6 nM in the data set on paternal Ube3a-YFP [1] (setting [8]). Moreover, the Emax in the data set on paternal Ube3a-YFP [1] (setting [9]) was 1.78 (± 0.13). Also, in the data set on paternal Ube3a-YFP [4], the “paternal UBE3A-YFP protein level (Western blot, normalized to actin)” value is recorded as “led to paternal UBE3A-YFP protein production”. In addition, the “substrate for transporter ABCG2” value in the data set on ABCG2 is listed as “not a substrate”. Besides, the CC50 at 72 h in the data set “in vitro” came out at 2010 nM.

In the case of `COc1cc2c3c(n(CCCO)c(=O)c2cc1OC)-c1cc2c(cc1C3=O)OCO2` [MNR-IV-64], the Emax in the data set on paternal Ube3a-YFP [1] (setting [6]) is listed as 1.37 (±0.09). In addition, the EC50 in the data set with paternal Ube3a-YFP [1] (setting [7]) came to 634 nM.

As for `O=C1c2ccccc2-c2c1c1ccc([N+](=O)[O-])cc1c(=O)n2CC(O)C(O)C(O)CO` (centres unmarked) [DB-V-37], the CC50 at 72 h in [5] is 2020 nM. Also, the “paternal UBE3A protein level (Western blot, normalized to actin)” value in the data set on paternal UBE3A is reported as “high level of paternal UBE3A protein”. In addition, the “neurons expressing paternal Ube3a-YFP above threshold” value in the data set on paternal Ube3a-YFP [1] (72 h) came to 14.1 ± 3.55%. Besides, the EC50 with paternal Ube3a-YFP [1] (setting [8]) was 29.9 nM. Besides, the Emax with paternal Ube3a-YFP [1] (setting [9]) is 1.48 (± 0.08). Besides, the “paternal UBE3A-YFP protein level (Western blot, normalized to actin)” value in the data set with paternal Ube3a-YFP [4] is “led to paternal UBE3A-YFP protein production”.

As to `CC[C@@]1(O)C(=O)OCc2c1cc1n(c2=O)Cc2cc3c(CN(C)C)c(O)ccc3nc2-1` [Topotecan], the “paternal UBE3A protein level (Western blot, normalized to actin)” value in the data set with paternal UBE3A is “high level of paternal UBE3A protein”. The “neurons expressing paternal Ube3a-YFP above threshold” value in the data set on paternal Ube3a-YFP [1] (72 h) came out at 33.0 ± 2.56%. Also, in the data set with paternal Ube3a-YFP [1] (setting [8]), the EC50 is 30.4 nM. Further, the Emax with paternal Ube3a-YFP [1] (setting [9]) is 1.51 (± 0.11). Besides, in the data set with paternal Ube3a-YFP [4], the “paternal UBE3A-YFP protein level (Western blot, normalized to actin)” value was “led to paternal UBE3A-YFP protein production”. This compound also yielded a CC50 at 72 h in the data set “in vitro” of 2300 nM.

On to `COc1cc2c3c(n(CCCn4ccnc4)c(=O)c2cc1OC)-c1cc2c(cc1C3=O)OCO2` [Indimitecan, indimitecan], for which the CC50 at 72 h in data set [5] came out at 789 nM. Also, the “paternal UBE3A protein level (Western blot, normalized to actin)” value with paternal UBE3A was “high level of paternal UBE3A protein”. Besides, the “inhibition of Top1 enzymatic activity” value in the data set with Top1 is around 100%. Further, in the data set with paternal Ube3a-YFP [1] (72 h), the “neurons expressing paternal Ube3a-YFP above threshold” value amounted to 23.9 ± 1.72%. Besides, the concentration giving a half-maximal response (EC50) with paternal Ube3a-YFP [1] (setting [8]) is 7.47 nM. In addition, the Emax in the data set with paternal Ube3a-YFP [1] (setting [9]) was 1.47 (± 0.10). In addition, the “paternal UBE3A-YFP protein level (Western blot, normalized to actin)” value in the data set on paternal Ube3a-YFP [4] is on record as “led to paternal UBE3A-YFP protein production”.

For the compound `C=CCn1c2c(c3cc(OC)c(OC)cc3c1=O)C(=O)c1cc3c(cc1-2)OCO3` [MJ-II-66A], the Emax with paternal Ube3a-YFP [1] (setting [6]) is 1.20 (±0.05). Also, the EC50 in the data set with paternal Ube3a-YFP [1] (setting [7]) was around 26.8 nM. Further, the “range of doses that produce Ube3a-YFP unsilencing before toxicities” value in the data set on paternal Ube3a-YFP [1] (dose-response 1E-10 to 3E-5 M, 72 h) was “very limited range of doses”.

As to `COc1cc2c3c(n(C[C@@H](O)CO)c(=O)c2cc1OC)-c1cc2c(cc1C3=O)OCO2` [DB-IV-58], in data set [5], the CC50 at 72 h came out at 2010 nM. The “paternal UBE3A protein level (Western blot, normalized to actin)” value with paternal UBE3A was “high level of paternal UBE3A protein”. The “neurons expressing paternal Ube3a-YFP above threshold” value with paternal Ube3a-YFP [1] (72 h) is recorded as 17.7 ± 3.87%. In addition, the EC50 in the data set with paternal Ube3a-YFP [1] (setting [8]) was 31 nM. Moreover, in the data set on paternal Ube3a-YFP [1] (setting [9]), the Emax is recorded as 1.45 (± 0.12). Also, the “paternal UBE3A-YFP protein level (Western blot, normalized to actin)” value with paternal Ube3a-YFP [4] is on record as “led to paternal UBE3A-YFP protein production”.
